Assay results taken from patent US12590100B2, “Tetrahydro-spiroindoline-pyrrolopyrrole-triones inhibitors of the NRF2-β-TrCP interaction for use in the treatment of fatty liver disease” (Universidad Autonoma De Madrid, priority 2021, dated 2026).

Tests used:
STAM mice (NAFLD) = assay: STAM fatty liver model, treatment from NASH stage (week 8) to week 10; type: in vivo, mouse
From the text: FIG. 13. PHAR slows fatty liver progression. The progressive damage of liver cells as a consequence of their metabolic alteration and chronic low-grade inflammation leads to their progression towards fibrosis and the consequent loss of liver function. The present invention makes it possible to treat patients diagnosed with fatty liver to prevent its progression towards more severe forms of liver disease such as fibrosis and cirrhosis. A) Scheme of the liver damage progression model. B) Representative spectra derived from MRI studies. At starting point (week 8; W8, NASH inflammation), mice subjected to the STAM protocol had fatty liver imitating the status of newly diagnosed patients. At this point, treatment with PHAR (50 mg/kg i.p; 5 days per week) began until week 10 (W10, fibrosis). C) standardized quantification of the amount of liver fat per mouse measured by MRI. Statistical analysis was performed using a two-way ANOVA followed by a Bonferroni test to compare the differences between treatments in control and STAM groups. **p<0.01. D) profiles of evolution of the amount of liver fat per mouse measured by MRI at week 8 (NASH) and week 10 (fibrosis). E) H&E histochemical analysis of mice treated with PHAR vs vehicle in control mice and in STAM mice together with oil red staining for determination of liver fat levels. F) levels of transcripts corresponding to the metabolism of fatty acids (Cpt1a, Scd1, Cd36 and Fasn). G) Levels of transcripts corresponding to pro-inflammatory cytokines (Tnf, Il6 and Infg) and anti-inflammatory (Il10 and Il4). For F and G, relative mRNA levels were determined by qRT-PCR and normalized by averaging Gapdh, Tbp, and β-actin. Statistical analysis was performed using a bidirectional ANOVA followed by a Bonferroni test to compare the differences between PHAR-treated mice vs vehicle-treated mice in the control and STAM models. *p<0.05; ***p<0.001.
After seeing the beneficial role of PHAR in the prevention of NASH, we analyzed its role in progression of liver damage. The progressive damage of hepatocytes is a consequence of their metabolic alteration and chronic low-grade inflammation and oxidative stress (FIG. 13A). We treated mice in the NASH stage (week 8), 5 days a week with an IP dose of 50 mg/kg PHAR until week 10. The analysis of fat accumulation was measured by MRI both at the initial point of treatment and at the end point (FIG. 13B). Vehicle-treated STAM mice underwent a progressive accumulation of lipids. […] Therefore, PHAR reduces low-grade chronic inflammation and liver fat accumulation.

NRF2-regulated genes = assay: mRNA of NRF2-regulated genes in MEFs (qRT-PCR); type: cell-based, mouse; details: PHAR 10 μM, 8 h
Description: FIG. 4. PHAR activates the NRF2 pathway. MEFs in serum-depleted conditions were subjected to (A-C) 1 μM, 3 μM, or 10 μM of PHAR and 10 μM of SFN as a positive control for 16 h; or (D-F) 10 μM of PHAR for the indicated times. In both experiments, 0.1% DMSO was used as a vehicle. A), representative immunoblots of NRF2, HO1, KEAP1, LAMINB, and GAPDH as loading controls. B) and C), densitometric analysis of NRF2 and HO1 protein levels of the representative immunoblots depicted in (A), expressed as a ratio of NRF2/LAMINB or HO1/GAPDH. The data is depicted as means±SEM (n=3). Statistical analysis was performed with one-way ANOVA followed by the Bonferroni test to check inter-group differences. *p<0.05; ***p<0.001 vs. 0. D), representative immunoblots of NRF2, HO1, KEAP1, LAMINB, and GAPDH as loading controls. E) and F), Densitometric analysis of NRF2 and HO1 protein levels of the representative immunoblots of (D), expressed as a ratio of NRF2/LAMINB or HO1/GAPDH. The data is depicted as means±SEM (n=3). Statistical analysis was performed with one-way ANOVA followed by the Bonferroni test to check inter-group differences. *p<0.05; ***p<0.001 vs. 0. […] Luciferase activity was measured after 16 h of treatment. […] The mRNA levels of Hmox1, Nqo1, Aox1, Glc, and Gclm after 8 h of treatment were determined by means of pRT-PCR and normalized by means of average LaminB, Gapdh, and β-actin. […]

[1] = STAM mice, week 8 to week 10, liver mRNA

In the case of `O=C1[C@@H]2[C@H](Cc3c[nH]c4ccccc34)N[C@]3(C(=O)Nc4ccc(Cl)cc43)[C@@H]2C(=O)N1c1ccc2c(c1)OCCO2` [PHAR], the “liver fat (oil red staining)” value (STAM mice (NAFLD); STAM mice, week 8 to week 10, IP 50 mg/kg) is reported as “protection against liver fat accumulation”, the “lipid accumulation in liver by MRI” value (STAM mice (NAFLD); STAM mice, week 8 to week 10, IP 50 mg/kg 5 days a week) is reported as “significant protection against lipid accumulation” and the “expression of Cpt1a (lipid catabolism)” value (STAM mice (NAFLD); [1]) is reported as “increasing the expression of Cpt1a”. The “expression of Fasn (lipid synthesis)” value (STAM mice (NAFLD); [1]) was “decrease in the expression of Fasn”, the “expression of anti-inflammatory cytokines” value (STAM mice (NAFLD); [1]) was “promotes an increase in anti-inflammatory cytokines” and the “expression of pro-inflammatory cytokines” value (STAM mice (NAFLD); [1]) was “attenuates the expression of pro-inflammatory cytokines”. For the same molecule, the “liver histology (H&E)” value (STAM mice (NAFLD); control and STAM mice, week 8 to week 10, IP 50 mg/kg) was “normal liver histology” and the “transcripts of Hmox1, Nqo1, Aox1, Gclc, Gclm” value (NRF2-regulated genes) was “increase in the corresponding transcripts was observed in all the cases”.
